Pain pressure threshold and pain threshold data for 3 molecules are collected here from patent US8802656B2, “Purified phospholipid-non-steroidal anti-inflammatory drug associated compositions and methods for preparing and using same” (priority 2004, dated 2014).

The test system of this experiment is rats injected with CFA in a hind paw. In words: Pain pressure threshold (modified Randall-Selitto) in rats with CFA-inflamed hind paw, acute oral dosing. In kind it is in vivo, rat. The following applies: for pain pressure threshold: ibuprofen 20 or 50 mg/kg, indomethacin 1 mg/kg intragastric, two hours after dosing, CFA 4 days before, FIG. 4. Here is the method: In the second in vivo experiment, we compared the analgesic activity of the acetone preparation of PC-ibuprofen to that of ibuprofen alone (at doses of 20 and 50 mg/kg) in rats and compared the response to a sub-threshod dose of indomethacin (1 mg/kg). The measurements were made on rats, in which 0.1 mL of Complete Freund's Adjuvant (CFA) was subcutaneously injected into the dorsal surface of the left hindpaw, 4 days previously to increase the affected paw's sensitivity to pressure. […] Myeloperoxidase Activity In this experiment, we evaluated the analgesic activity of the test material using a rodent model system previously described in detail. This was accomplished by initially inducing inflammation of a hind paw of male Sprague Dawley rats by subcutaneously injecting 0.1 mL of Complete Freund's Adjuvant (Sigma Chemical Co. St. Louis, Mo.) into the doral surface of the left hind paw. […] For comparison, we also intragastrically administered a group of rats with a sub-threshold dose (1 mg/kg) of the NSAID, indomethacin, that was suspended in 1% methyl cellulose.

Entries after “also recorded” stand apart in the source; their conditions may differ.

With `CC(C)Cc1ccc(C(C)C(=O)O)cc1` (stereo not shown) [ibuprofen], the pain pressure threshold result runs as follows: (listed as generic ibuprofen) “dose-dependent increase in pain pressure threshold”; (listed as unmodified ibuprofen) “apparent dose-dependent increase in pain pressure threshold”. Take `COc1ccc2c(c1)c(CC(=O)O)c(C)n2C(=O)c1ccc(Cl)cc1` [indomethacin]: the pain pressure threshold result is recorded as “no effect; also recorded: non-significant response”.

In the case of `CC(=O)Oc1ccccc1C(=O)O` [ASA, Aspirin], the pain threshold entry (CFA induced inflammation, Randall Siletto procedure, ASA formulations, FIG. 13) was “performed similarly”.
